Biological target: PRMT5 (Homo sapiens (Human), UniProt O14744)
Assay: Inhibitory activity against PRMT5 enzyme by radioisotopic method
Format: biochemical
Conditions: PRMT5 5 nM, [3H]-SAM 0.3 μM, polypeptide substrate GL-27 100 nM, room temperature
Experimental: Test Example 1. Test on the inhibitory activity of the compounds of the invention against PRMT5 enzyme by radioisotopic method
Test method: A 1× enzyme reaction buffer (10 mM Tris 8.0 (Sigma, Cat. No. T2694-1L), 0.01% Tween-20 (Sigma, Cat. No. P2287-100 ML), 1 mM DTT (Sigma, Cat. No. D0632-10G)) was prepared. PRMT5 (Active Motif, Cat. No. 31921) and [3H]—SAM (PerkinElmer, Cat. No. NET155V001MC) were added to the 1×enzyme reaction buffer, to prepare a 25/15× mixed solution (PRMT5 final concentration: 5 nM, [3H]—SAM final concentration: 0.3 μM). 15 μL of this solution was transferred into a 384-well microplate (Corning 384-well Polypropylene Storage Microplates, Cat. No. 3657) with various concentrations of the compounds (DMSO final concentration 1%), and incubated at room temperature for 60 minutes. A polypeptide substrate, GL-27 (Ac-[…]-K (Biotin) (GL Biochem, Cat. No. 342095)), was added into the 1×enzyme reaction buffer to prepare a 25/10× substrate solution. Then 10 μL of the polypeptide substrate solution (final concentration of the polypeptide substrate: 100 nM) was added, a reaction was stirred at room temperature for 120 minutes, and then 5 μL 6× ice cold SAM (Sigma, Cat. No. A7007-100 MG) solution was added to stop the reaction (SAM final concentration: 0.125 mM). 25 µL of the reaction mixture was transferred into a FlashPlate (Streptavidin FlashPlate HTS PLUS, High Capacity, 384-well, Perkin Elmer, Cat. No. SMP410A001PK), and incubated at room temperature for 1 h. After washed three times with distilled water containing 0.1% Tween-20, the microplate was read on a MicroBeta reader for CPM data (Counts Per Minute). […] Then the inhibition rate Inh % (Y) corresponding to each concentration (X) was input in EXCEL, and the IC50 value (the half maximal inhibitory concentration) of each compound was calculated with the XLfit plug-in according to the built-in four-parameter fitting equation Y=Bottom+(Top-Bottom)/(1+(IC50/X)[…]).

Sequence of PRMT5 (O14744 whole entry): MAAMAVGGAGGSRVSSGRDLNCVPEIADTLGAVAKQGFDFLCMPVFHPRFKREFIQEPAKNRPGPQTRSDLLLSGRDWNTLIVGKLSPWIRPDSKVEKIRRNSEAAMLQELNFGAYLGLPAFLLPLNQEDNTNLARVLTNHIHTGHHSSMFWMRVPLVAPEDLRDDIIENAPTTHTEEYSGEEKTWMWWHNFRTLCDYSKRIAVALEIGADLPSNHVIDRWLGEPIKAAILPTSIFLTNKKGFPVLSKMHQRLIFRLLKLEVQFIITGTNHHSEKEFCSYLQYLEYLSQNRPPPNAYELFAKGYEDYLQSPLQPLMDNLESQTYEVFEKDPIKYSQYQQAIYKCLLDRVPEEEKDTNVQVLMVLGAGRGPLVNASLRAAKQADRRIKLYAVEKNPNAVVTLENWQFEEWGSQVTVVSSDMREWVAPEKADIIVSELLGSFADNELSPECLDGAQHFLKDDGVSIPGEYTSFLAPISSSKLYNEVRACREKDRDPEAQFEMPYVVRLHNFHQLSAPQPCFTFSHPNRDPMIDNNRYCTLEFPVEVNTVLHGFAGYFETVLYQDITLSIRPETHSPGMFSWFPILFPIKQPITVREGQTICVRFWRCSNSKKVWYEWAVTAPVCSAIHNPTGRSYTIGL
Sequence of PRMT5 (Q9BQA1 whole entry partner): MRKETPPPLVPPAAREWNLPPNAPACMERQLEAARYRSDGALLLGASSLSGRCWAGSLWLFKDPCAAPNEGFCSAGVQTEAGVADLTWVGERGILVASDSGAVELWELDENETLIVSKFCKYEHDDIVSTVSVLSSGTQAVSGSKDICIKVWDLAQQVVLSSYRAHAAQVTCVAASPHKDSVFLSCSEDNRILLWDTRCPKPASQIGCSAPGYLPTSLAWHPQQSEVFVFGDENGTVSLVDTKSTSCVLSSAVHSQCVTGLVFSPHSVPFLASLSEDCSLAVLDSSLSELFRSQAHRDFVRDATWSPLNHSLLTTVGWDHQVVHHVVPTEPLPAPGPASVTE

IC50 [nM] | Compound
< 100 | Cc1ccc(Nc2cc(N3CC[C@H](N4CCc5ccccc5C4)[C@@H](O)C3)ncn2)cc1 [Example 41, trans-1-(6-((4-methylphenyl)amino)pyrimidin-4-yl)-4-(3,4-dihydroisoquinolin-2(l H)-yl)piperidin-3-ol]
< 100 | O[C@H]1CN(c2cc(Nc3ccccc3Cl)ncn2)CC[C@@H]1N1CCc2ccccc2C1 (relative stereo) [Example 54, trans-4-(3,4-dihydroisoquinolin-2(1H)-yl)-1-(6-((2-chlorophenyl)amino)pyrimidin-4-yl)piperidin-3-ol]
< 100 | COc1ccccc1Nc1cc(N2CC[C@H](N3CCc4ccccc4C3)[C@@H](O)C2)ncn1 (relative stereo) [Example 57, trans-4-(3,4-dihydroisoquinolin-2(1H)-yl)-1-(6-((2-methoxyphenyl)amino)pyrimidin-4-yl)piperidin-3-ol]
< 100 | O[C@H]1CN(c2cc(Nc3cccc(C4CC4)c3)ncn2)CC[C@@H]1N1CCc2ccccc2C1 (relative stereo) [Example 35, trans-1-(6-((3-cyclopropylphenyl)amino)pyrimidin-4-yl)-4-(3,4-dihydroisoquinolin-2(1H)-yl)piperidin-3-ol]
< 100 | CC(=O)N1CCC(Nc2cc(C(=O)N3CC[C@H](N4CCc5ccccc5C4)[C@@H](O)C3)nc(N3CCOCC3)n2)CC1 (relative stereo) [Example 144, 1-(4-((6-(trans-4-(3,4-dihydroisoquinolin-2(1H)-yl)-3-hydroxypiperidine-1-carbonyl)-2-morpholinopyrimidin-4-yl)amino)piperidin-1-yl)ethan-1-one]
< 100 | CCC(CC)Oc1nc(NC2CCN(C(=O)C3CC(F)(F)C3)CC2)cc(C(=O)N2CC[C@@H](N3CCc4ccccc4C3)[C@H](O)C2)n1 [Example 156, (6-((1-(3,3-difluorocyclobutane-1-carbonyl)piperidin-4-yl)amino)-2-(pentan-3-oxy)pyrimidin-4-yl)((3R,4R)-4-(3,4-dihydroisoquinolin-2(1H)-yl)-3-hydroxy-piperidin-1-yl)ketone]
< 100 | CC(C)(C)OC(=O)N1CCC(Nc2cc(C(=O)N3CC[C@H](N4CCc5ccccc5C4)[C@@H](O)C3)ncn2)CC1 (relative stereo) [Example 110, t-butyl trans-4-((6-(4-(3,4-dihydroisoquinolin-2(1H)-yl)-3-hydroxypiperidine-1-carbonyl)pyrimidin-4-yl)amino)piperidine-1-carboxylate]
< 100 | O[C@@H]1CN(c2cc(Nc3ccccc3N3CCCC3)ncn2)CC[C@H]1N1CCc2ccccc2C1 (relative stereo) [Example 80, trans-4-(3,4-dihydroisoquinolin-2(1H)-yl)-1-(6-((2-(pyrrolidin-1-yl)phenyl)amino)pyrimidin-4-yl)piperidin-3-ol]
< 100 | CC(=O)N1CCC(Nc2cc(C(=O)N3CC[C@H](O)[C@@H](N4CCc5ccccc5C4)CC3)ncn2)CC1 [Example 124, 1-(4-((6-((4S,5S)-4-(3,4-dihydroisoquinolin-2(1H)-yl)-5-hydroxyazepane-1-carbonyl)pyrimidin-4-yl)amino)piperidin-1-yl)ethan-1-one]
< 100 | CCOc1ccccc1Nc1cc(N2CC[C@@H](N3CCc4ccccc4C3)[C@H](O)C2)ncn1 (relative stereo) [Example 90, trans-1-(6-((2-ethoxyphenyl)amino)pyrimidin-4-yl)-4-(3,4-dihydroisoquinolin-2(1H)-yl)piperidin-3-ol]
< 100 | O[C@@H]1CN(c2cc(Nc3ccccc3OCC(F)(F)F)ncn2)CC[C@H]1N1CCc2ccccc2C1 (relative stereo) [Example 91, trans-1-(6-((2-(2,2,2-trifluoroethoxy)phenyl)amino)pyrimidin-4-yl)-4-(3,4-dihydroisoquinolin-2(1H)-yl)piperidin-3-ol]
< 100 | CC(=O)N1CCC(Nc2cc(C(=O)N3CC[C@H](N4CCc5ccccc5C4)[C@@H](O)C3)c(C(F)(F)F)cn2)CC1 (relative stereo) [Example 102, trans-1-(4-((4-(4-(3,4-dihydroisoquinolin-2(1H)-yl)-3-hydroxypiperidine-1-carbonyl)-5-(trifluoromethyl)pyridin-2-yl)amino)piperidin-1-yl)ethan-1-one]
< 100 | O[C@@H]1CN(c2cc(Nc3ccc(N4CCCC4)cc3)ncn2)CC[C@H]1N1CCc2ccccc2C1 (relative stereo) [Example 95, trans-4-(3,4-dihydroisoquinolin-2(1H)-yl)-1-(6-((4-(pyrrolidin-1-yl)phenyl)amino)pyrimidin-4-yl)piperidin-3-ol]
< 100 | O[C@H]1CN(c2cc(Nc3cccc4c3OCCO4)ncn2)CC[C@@H]1N1CCc2ccccc2C1 (relative stereo) [Example 94, trans-1-(6-((2,3-dihydrobenzo[b][1,4]dioxin-5-yl)amino)pyrimidin-4-yl)-4-(3,4-dihydroisoquinolin-2(1H)-yl)piperidin-3-ol]
< 100 | CC(=O)N1CCC(Nc2cc(C(=O)N3CC[C@H](N4CCc5ccccc5C4)[C@@H](O)C3)nc(C)n2)CC1 (relative stereo) [Example 111, trans-1-(4-((6-(4-(3,4-dihydroisoquinolin-2(1H)-yl)-3-hydroxypiperidine-1-carbonyl)-2-methylpyrimidin-4-yl)amino)piperidin-1-yl)ethan-1-one]
< 100 | O[C@H]1CN(c2cc(Nc3ccc(C4CC4)cc3)ncn2)CC[C@@H]1N1CCc2ccccc2C1 (relative stereo) [Example 38, trans-1-(6-((4-cyclopropylphenyl)amino)pyrimidin-4-yl)-4-(3,4-dihydroisoquinolin-2(1H)-yl)piperidin-3-ol]
< 100 | Cc1ccccc1Nc1cc(N2CC[C@H](N3CCc4ccccc4C3)[C@@H](O)C2)ncn1 (relative stereo) [Example 46, trans-1-(6-((2-methylphenyl)amino)pyrimidin-4-yl)-4-(3,4-dihydroisoquinolin-2(1H)-yl)piperidin-3-ol]
< 100 | CC(=O)N1CCC(Nc2cc(C(=O)N3CC[C@@H](N4CCc5ccccc5C4)[C@H](O)C3)nc(N3CCN(C)CC3)n2)CC1 [Example 149, 1-(4-((6-((3R,4R)-4-(3,4-dihydroisoquinolin-2(1H)-yl)-3-hydroxypiperidine-1-carbonyl)-2-(4-methylpiperazin-1-yl)pyrimidin-4-yl)amino)piperidin-1-yl)ethan-1-one]
< 100 | C#Cc1nc(NC2CCN(C(C)=O)CC2)cc(C(=O)N2CC[C@@H](N3CCc4ccccc4C3)[C@H](O)C2)n1 [Example 150, 1-(4-((6-((3R,4R)-4-(3,4-dihydroisoquinolin-2(1H)-yl)-3-hydroxypiperidine-1-carbonyl)-2-ethynylpyrimidin-4-yl)amino)piperidin-1-yl)ethan-1-one]
< 100 | O[C@H]1CN(c2cc(Nc3ccccc3-c3ccccc3)ncn2)CC[C@@H]1N1CCc2ccccc2C1 (relative stereo) [Example 66, trans-1-(6-([1,1′-biphenyl]-2-ylamino)pyrimidin-4-yl)-4-(3,4-dihydro-isoquinolin-2(1H)-yl)piperidin-3-ol]
< 100 | CC(=O)N1CCC(Oc2cc(C(=O)N3CC[C@@H](N4CCc5ccccc5C4)[C@H](O)C3)ncn2)CC1 (relative stereo) [Example 142, trans-1-(4-((6-(4-(3,4-dihydroisoquinolin-2(1H)-yl)-3-hydroxypiperidine-1-carbonyl)pyrimidin-4-yl)oxy)piperidin-1-yl)ethan-1-one]
< 100 | COc1nc(NC2CCN(C(C)=O)CC2)cc(C(=O)N2CC[C@H](N3CCc4ccccc4C3)[C@@H](O)C2)n1 (relative stereo) [Example 120, 1-(4-((6-(trans-4-(3,4-dihydroisoquinolin-2(1H)-yl)-3-hydroxypiperidine-1-carbonyl)-2-methoxypyrimidin-4-yl)amino)piperidin-1-yl)ethan-1-one]
< 100 | CC(=O)N1CCC(Nc2cc(C(=O)N3CC[C@@H](N4CCc5ccccc5C4)[C@H](O)C3)nc([S+]([O-])C(C)C)n2)CC1 (stereo partly drawn) [Example 157, 1-(4-((6-((3R,4R)-4-(3,4-dihydroisoquinolin-2(1H)-yl)-3-hydroxypiperidine-1-carbonyl)-2-(isopropylsulfinyl)pyrimidin-4-yl)amino)piperidin-1-yl)ethan-1-one]

Compound | IC50 [nM]
CCC(CC)Oc1nc(NC2CCN(C(C)=O)CC2)cc(C(=O)N2CC[C@@H](N3CCc4ccccc4C3)[C@H](O)C2)n1 [Example 141, 1-(4-((6-((3R,4R)-4-(3,4-dihydro-4,4-dideuterium-isoquinolin-2(1H)-yl)-3-hydroxypiperidine-1-carbonyl)-2-(pentane-3-oxy)pyrimidin-4-yl)amino)piperidin-1-yl)-ethan-1-one] | < 100

From patent publication US20240336593A1, “Compound Having Antitumor Activity And Use Thereof” (lnnovStoneTherapeutics Limited, priority 2020, published 2024)
